# Assay results from patent publication EP0147498A2, “Method of testing chemical and biological substances” (Thorn, Werner Prof. Dr., priority 1983, dated 1985).
# How the values were obtained:
# [1] = system: Syncytiotrophoblasten der Placenta; conditions: cited from earlier work; for PP-Bildung in Meerschweinchenplacenten: animal experiments, Archiv für Gynäkologie 216 (1974) and 221 (1976); for Auftreten von Plasmapolypen am Syncytiotrophoblasten der Placenta: poisoning of pregnant guinea pigs, within a few minutes, already known
# Magenschleimhaut = test: Plasma polyp (PP) formation at the gastric mucosa after application by stomach tube, PP isolated by reverse centrifugation and counted by phase-contrast microscopy; conditions: for Anzahl der PP pro 1 g Rattenmagen: stomach tube, about 20-30 min
# Text: Die PP-Bildung, deren Konzentration und Auszählung wurden an Gruppen zu je 5 Ratten von 140 bis 160 g Körpergewicht, im Mittel 150 g, kontrolliert und die Anzahl der PP auf 1 g Magen (Leergewicht) umgerechnet. Die Tiere waren vor dem Versuch 15 bis 17 Stunden nahrungsfrei. Die Applikation der Testsubstanzen, die gelöst sind in Krebs-Ringer-Lösung (KRL) oder Aq.bidest, erfolgte per Schlundsonde. Die verabreichte Lösung besitzt einen pH-Wert von 7,0 bis 7,2. Die Verweildauer des applizierten Volumens hängt zum Teil ab von den Eigenschaften der Testsubstanz. […] Die Verweildauer der Testsubstanz bis zur Entnahme der Mägen einer Gruppe betrug etwa 20 bis maximal 30 min. Dabei werden dosisabhängig die abgeschnürten PP erfaßt.
# Es wurden 5 Tierversuche - zu einer Serie zusammengefaßt - durchgeführt innerhalb von 40 min, wobei die Mägen wie folgt aufgearbeitet wurden: • 1. Jeder Ratte werden in nicht narkotisiertem Zustand 4,5 ml der Lösung bestehend aus der in KRL oder Aq.bidest gelösten Testsubstanz mittels einer Schlundsonde appliziert. • 2. Nach einer Einwirkzeit von etwa 15 bis 20 min werden 40 bis 45 mg Nembutal intraperitoneal appliziert, 2 bis 3 min zugewartet und dann der Magen während eines Zeitraums von etwa 5 min entnommen. • 3. Der Magen wird aufgeschnitten, der Inhalt aufgefangen, auf PP geprüft und der leere Magen in. oxygenierte KRL-Lösung mit Glucosezusatz geworfen. • 4. Alle 5 Mägen werden in der glucosehaltigen KRL dreimal hochtourig homogenisiert, das Homogenisat über ein feinmaschiges Sieb gegossen, und das Sieb wird mit 20 ml KRL nachgespült, so daß ein Endvolumen von 80 ml vorliegt. • 5. Die Volumina aus den Stufen 3 und 4 werden mit 8 ml eine: 7 %iger Lösung aus einem Copolymeren der Saccharose mit Epichlorhydrin unterschichtet und bei 2000 Umdrehungen/min im Schwingbecherrotor für 20 min zentrifugiert. • 6. Die die PP enthaltende Schicht wird erneut 60 min im Festwinkelrotor bei 13000 Umdrehungen/min (Ultrazentrifuge) zentrifugiert, der Uberstand wird verworfen und das Sediment weiterverarbeitet. • 7 Das Sediment wird einer umgekehrten Zentrifugation in der Ultrazentrifuge bei 25000 U/min für 45 min unterzogen. • 8. Die in einer Bohrung aufgefangenen PP aus der umgekehrten Zentrifugation werden in 50 µl KRL aufgenommen. • 9. Zur Auszählung der PP aus Stufe 8 bei einem Ansatz von jeweils 3 µl dient ein Phasenkontrastmikroskop. Es werden 10 Felder mit dem Rasterobjektiv ausgezählt, zum Teil unter fotografischer Kontrolle. Die in der nachfolgenden Tabelle aufgeführten Werte stammen jeweils aus drei Ansätzen; einer Probe von 5 Rattenmägen oder aus der Auswertung von 30 Feldern. • 10. Mittelwert pro Feld x Umrechnungsfaktor pro Feld x 16,6 ergibt die Zahl der PP pro Gramm Magen. Der Umrechnungsfaktor für die Feldfläche von 18 x 18 mm^2 ist 24,652.
# Es wurden die in der folgenden Tabelle angegebenen Substanzen injiziert und dann die Anzahl der PP aus einer Serie von 5 Tieren als Mittelwert pro Gramm Rattenmagen oder gemittelt aus mehreren Serien mit jeweils 5 Tieren ermittelt.
compound,measurement,setting,value
O=C(O)CI [Monojodacetat],PP-Bildung in Meerschweinchenplacenten,[1],"verstärkte, reproduzierbare Bildung und Abschnürung von Zellprotrusionen"
same,Auftreten von Plasmapolypen am Syncytiotrophoblasten der Placenta,[1],in großer Zahl
"CC(=O)C(=O)O [Na-Pyruvat, Natriumpyruvat]",Anzahl der PP pro 1 g Rattenmagen,"Magenschleimhaut; 0,5 mmol Na-Pyruvat in 4,5 ml Aq.bidest, 1 series of 5 rats",etwa 220.000 PP pro 1 g Rattenmagen
same,"PP-Zahlen gegenüber der Blindprobe (4,5 ml Aq.bidest)","Magenschleimhaut; Na-Pyruvat alone, compared with the blank",keine Erhöhung
O=C(O)O [NaHCO3],Anzahl der PP pro 1 g Rattenmagen,"Magenschleimhaut; 1,33 mmol NaHCO3 in 4,5 ml Aq.bidest, mean of 4 series of 5 rats",333.700 PP pro 1 g Rattenmagen
[F-].[Na+] [Natriumfluorid],PP-Bildung in Meerschweinchenplacenten,[1],"verstärkte, reproduzierbare Bildung und Abschnürung von Zellprotrusionen"
same,Auftreten von Plasmapolypen am Syncytiotrophoblasten der Placenta,[1],in großer Zahl
CC(O)C(=O)O (centres unmarked) [Na-Lactat],Anzahl der PP pro 1 g Rattenmagen,"Magenschleimhaut; 2,0 mmol Na-Lactat in 4,5 ml Aq.bidest, mean of 4 series of 5 rats",344.000 PP pro 1 g Rattenmagen
"CC(=O)Oc1ccccc1C(=O)O [ASS, Acetylsalicylsäure]",Anzahl der PP pro 1 g Rattenmagen,"Magenschleimhaut; 0,5 mmol ASS in 4,5 ml Aq.bidest, mean of 3 series of 5 rats",728.000 PP pro 1 g Rattenmagen
same,Anzahl der PP pro 1 g Rattenmagen,"Magenschleimhaut; 0,25 mmol ASS in 4,5 ml Aq.bidest, mean of 3 series of 5 rats",610.700 PP pro 1 g Rattenmagen
O=[N+]([O-])c1ccc(O)c([N+](=O)[O-])c1 [2.4-Dinitrophenol],PP-Bildung in Meerschweinchenplacenten,[1],keiner vermehrten PP-Bildung
